# Measurements reported in a melting point compilation (Tetko et al.; mined from patent text by program, amines drawn as free bases though some values may be those of a salt).
row,Structure (SMILES),melting point
1,CCOC(=O)C1=C(NC(C)=O)Oc2cc(O)ccc2C1c1cnc2ccccc2c1 (stereo not given),248 to 251 °C
2,c1ccc(Cc2cnc(N3CCN(c4nc(-c5ccccc5)nc5ccccc45)CC3)nc2)cc1,135 to 137 °C
3,C[C@@H](c1ccc(-c2ccc(=O)n(C)c2)cc1)N1CC[C@](CC(C)(C)O)(c2ccccc2)OC1=O,180 to 181 °C
4,CCCOc1cc(C)c(NC(=O)C(C)Br)c(C)c1 (stereo not given),148 °C
5,CC(C=NO)n1nnc2ccc(Oc3cc(F)c(C(F)(F)F)c(Cl)c3)cc21 (stereo not given),148 to 151 °C
6,Cc1cc(C)c2c(=O)[nH]c(-c3cc(C)c(OCCO)c(C)c3)nc2c1,260 to 261 °C
7,CCCCn1c(=O)n2cnnc2c2[nH]c(-c3cc(S(=O)(=O)N4CC(CN(C)C)C4)ccc3OCCC)nc21,198 °C
8,CNS(=O)(=O)c1ccccc1Nc1nc(Nc2ccc3c(c2)CCCC(=O)N3C)ncc1Cl,175 to 177 °C
9,NS(=O)(=O)c1cc2c(Cl)c(N3CCOCC3)ccc2s1,195 to 199 °C
10,COc1cc(Cc2cnc(N)nc2N)c2c(c1OC)OC(C)C2 (stereo not given),216 to 219 °C
11,CCNC(=S)n1nc(Oc2c(Cl)cc(C(F)(F)F)cc2Cl)cc1C,94 to 96 °C
12,CC(O)C1(c2cccc(Cl)c2)CCN(C)CC1 (stereo not given),125 to 126 °C
13,CC(=O)Nc1c(I)c(C(N)=O)c(I)c(C(=O)NCC(=O)O)c1I,271 to 272 °C
14,CC(Oc1ccc(CCNCC(O)COc2ccccc2)cc1)C(N)=O (stereo not given),117 to 119 °C
15,COc1cc(C(=O)N2CCCCc3cc(Cl)ccc32)ccc1OCc1ccccc1Cl,135 °C
16,CCOCN1C(C)=C(C(=O)OC)C(c2cccc([N+](=O)[O-])c2)C(C(=O)OCCBr)=C1C (stereo not given),72.5 to 74 °C
17,CN(C)CCOc1cccc2cc(C(=O)Nc3ccccc3N)oc12,108 to 118 °C
18,COc1ccc(CCN2CCC(C(=O)c3nc4ccccc4s3)CC2)cc1,119 to 120 °C
19,CCc1cc(C(=O)OC)c(C2=NC(=O)C(C)(C(C)C)N2)nc1COC (stereo not given),87 to 90 °C
20,COC(=O)C1CC(O)C(=O)N1 (stereo not given),85 to 86 °C
21,COc1cc2ncnc(NC3=CC(=O)C(c4ccccc4)=CC3=O)c2cc1OC,200 to 205 °C
22,OC(CNCCCCCCOCCCCc1ccccc1)c1cc(OCc2ccccc2)cc(OCc2ccccc2)c1 (stereo not given),65 to 67 °C
23,CCN1CC2CCCC2C1CNC(=O)c1cc(Cl)c(NC(C)=O)cc1OC (stereo not given),156 to 157 °C
24,Fc1cccc(-c2nc(-c3ccccn3)no2)c1F,120 to 121 °C
25,O=C1c2ccccc2C(=O)N1CCOCCOCCOCCOCCOCCN1C(=O)c2ccccc2C1=O,124 to 126 °C

row,Structure (SMILES),melting point
1,CC[C@H](C)[C@H](NC(=O)[C@H](C)N(C(C)=O)C1CCCCC1)C(=O)N[C@@H](Cc1ccc2ccccc2c1)[C@@H](O)[C@@H](O)CC(C)C,192 to 194 °C
2,O=c1[nH]c2ccccc2c(=O)c(Cc2ccccc2)c1O,199 to 200 °C
3,COc1cc(C)ccc1S(=O)(=O)NC(=O)C(c1ccc2c(c1)OCO2)c1cn(C)c2cc(C(=O)O)ccc12 (stereo not given),199 °C
4,N#Cc1ccccc1CCC(=O)c1c(O)c2cccnc2n(-c2ccccc2)c1=O,226 to 227 °C
5,N#Cc1cc([N+](=O)[O-])ccc1Oc1ccc(Cl)cc1,163 to 164 °C
6,O=C1c2cc([N+](=O)[O-])cc3c(N4CCCC4)c([N+](=O)[O-])cc(c23)C(=O)N1O,249 to 250 °C
7,CC(=O)NCC1CCCc2cc(NS(=O)(=O)c3cccc(F)c3)ccc21 (stereo not given),136 to 137 °C
8,CC1=Nc2ccc(F)c(F)c2OC1,51.2 °C
9,CCOCc1nc2c(N)nc3ccccc3c2n1CCCCCC(=O)N1CCOCC1,160 to 162 °C
10,Cc1oc(-c2cccs2)nc1COc1ccc(Cn2cc(CCC(=O)O)c(-c3ccccc3)c2)cc1,117 to 118 °C
11,Cc1cc(C#N)cc(C(=O)NCC2CC2)c1NC(=O)c1cc(C(F)(F)F)nn1-c1ncccc1Cl,235 to 236 °C
12,COc1ccc(N(CC(=O)NCCC(=O)O)C(=O)c2ccc(Cl)cc2)cc1,129 to 131 °C
13,COc1ccc(C2C(C(=O)/C=C/c3ccccc3)C(=O)CC(c3ccccc3)C2[N+](=O)[O-])cc1 (stereo not given),108 to 110 °C
14,Cc1ncn(-c2ccc(NC(=O)OCc3ccccc3)cc2F)n1,153 to 155 °C
15,CC(C)OCC1(C(F)(F)F)c2cc(C#N)ccc2Nc2ncc(Br)cc21 (stereo not given),76 to 77 °C
16,CC(=O)C1CCCS1(=O)=O (stereo not given),119 to 120 °C
17,COC[C@H]1CCCN1C(=O)c1cc(-c2ccccc2)c(=O)n2c1-c1ccccc1C2,130 to 131 °C
18,CC(C)N1CC(=O)C(C#N)=C1N,285 to 290 °C
19,O=C(N[C@H]1CC[C@H](CCN2CCN(c3nccc4c3CCO4)CC2)CC1)c1ccc(-c2ccccc2)cc1,232 °C
20,CC(=O)C1=NN(c2ccc(C(=O)O)cc2C)C(=O)C1,> 250 °C
21,N#Cc1ccc(Cc2nc[nH]n2)cc1,151 to 153 °C
22,COc1cccc2c1CCNCC2,44.3 to 45 °C
23,CN(c1ccccc1-c1ccc2cnc(Nc3ccc(N4CCN(CC(N)=O)CC4)c(F)c3)nn12)S(C)(=O)=O,148 °C
24,CC(C)NC(=O)C(Cl)Cl,45 to 48 °C
25,ClCc1cn2c(-c3ccccc3)cccc2n1,126 to 127 °C

row,Structure (SMILES),melting point
1,CCOC(=O)n1ccc(=O)c2cnc(N3CCN(CC)CC3)nc21,161 °C
2,COC(=O)C1CNCCN1C(=O)c1cc(OC)c(OC)c(OC)c1 (stereo not given),134 to 135 °C
3,Cc1cc(C)c2[nH]c(=O)c(O)cc(=O)c2c1,211 to 213 °C
4,CCCc1[nH]c(C)c(C(C)=O)c1C,157 to 158 °C
5,COc1ccc(COC(=O)c2cc(Br)nn2-c2ncccc2Cl)cc1,83 °C
6,Nc1ccc(CCc2nnco2)cc1,73 to 74 °C
7,C=CC(=O)N(C)CCCCCCCCCCCOc1ccc(C(=O)O)c(C(=O)O)c1,95 °C
8,O=C(O)Cc1ccc2c(c1)C(=O)c1cc(Cl)ccc1CS2,187 to 189 °C
9,CCN1C(=O)N=NC1c1ccc(Cl)cc1 (stereo not given),190 to 197 °C
10,CCOC(=O)CC(NC(=O)CNC(=O)c1csc(NC(=N)N)n1)c1cccnc1 (racemic),114 °C
11,N=C(N)NCCCOc1ccc2c(c1)NC(=O)C(CCC(=O)O)C2 (stereo not given),157 to 159 °C
12,CC(C)(n1cncn1)C(O)(Cn1cncn1)c1ccc(F)cc1 (stereo not given),156 to 158 °C
13,CCSC(C)(C)C(=O)CC(=O)Nc1cc(NC(=O)CCCOc2ccc(C(C)(C)CC)cc2C(C)(C)CC)ccc1OC,57 to 60 °C
14,O=C1CCCc2c1[nH]c1ccc(F)cc21,131 °C
15,CC(C)(CO)c1ccc(C(O)CCCN2CCC(=C3c4ccccc4CCc4ccccc43)CC2)cc1 (stereo not given),157 to 159 °C
16,OC(COC1CCCCO1)(Cn1cncn1)c1ccc(Cl)cc1 (stereo not given),70 °C
17,C1=C(c2c[nH]c3ccccc23)CCN(CC2COc3ccc4[nH]ccc4c3O2)C1 (stereo not given),126 °C
18,CCOCC1=NNC(=O)N(N=Cc2cccnc2)C1,156 to 158 °C
19,Cn1c(OC2CCOC2)nn(C(=O)Oc2ccccc2)c1=O (stereo not given),98 °C
20,Cc1oc(-c2ccccc2)nc1COc1nn(Cc2ccc(Oc3ccccc3)cc2)cc1CO,103 to 104 °C
21,[N-]=[N+]=NCCOc1ccc(F)c2c1CC(=O)N2,147 to 148 °C
22,CN1CCN(CCCn2cc(Br)c3c4c(c(-c5ccccc5Cl)cc32)C(=O)NC4=O)CC1,150 to 152 °C
23,CCCCCCCCCCS(=O)(=O)c1ccc(O)c(C(=O)Nc2ccc(C(F)(F)F)cc2)c1,155 to 157 °C
24,CCOc1nc(N2CCSCC2)nc(Cl)c1[N+](=O)[O-],149 to 150 °C
25,CC(C)(C)c1cc(C(=O)c2ccccn2)cc2c1OCC2(C)C,95 to 97 °C

row,Structure (SMILES),melting point
1,CCCc1nn(C)c2c(=O)[nH]c(Cc3ccc4[nH]c(=O)ccc4c3)nc12,> 300 °C
2,Nc1ccc2c(ccn2C(=O)c2ccc(F)cc2)c1,205 to 207 °C
3,CC(=O)NCc1cc(CCC(=O)O)no1,134 °C
4,COc1ccccc1C1C(C#N)=C(c2ccccc2)Nc2n[nH]cc21 (stereo not given),206 °C
5,CC(C)c1ccc2c(-c3cc(C(C)(C)C)c(O)c(C(C)(C)C)c3)nn(CCO)c2n1,110 to 111 °C
6,CCOP(=O)(Cc1ccc(NC(=S)Nc2cc(-c3cc4cc(F)c(F)cc4[nH]3)ccc2OC)cc1)OCC,180 to 182 °C
7,N#Cc1cnc2c(oc3ccccc32)c1Nc1ccc(Oc2ccccc2)cc1,175 to 179 °C
8,Cn1nc2nc(-c3ccc(N)c(C#N)c3)cc(C(F)(F)F)c2c1-c1ccccc1,295 °C
9,O=C1NC2(CCCCC2)c2ccccc21,232 to 234 °C
10,N#CCNC(=O)C(Sc1nc2cc(Cl)ccc2s1)c1ccccc1 (stereo not given),167 to 169 °C
11,CC(C)(C)OC(=O)NCc1ccc(Nc2ncnc3[nH]cc(C(=O)c4ccccc4)c23)cc1,256 to 258 °C
12,CNc1nc(-c2cccc(C=O)c2)c2cc(OC)c(OC)cc2n1,110 to 112 °C
13,CC(=O)OC1=CCC2C3CC=C4CC(OC(C)=O)CCC4(C)C3CCC12C (stereo not given),144 to 150 °C
14,CCSc1nc2c(C)sc(C(=O)O)c2n1Cc1ccc(-c2ccccc2-c2n[nH]c(=O)n2C)cc1,181 to 182 °C
15,COc1ccc2[nH]c(C)c(CC(N)=O)c2c1,146 to 148 °C
16,OCCSCc1ccc(CSCCO)cc1,90 to 92 °C
17,O=C(O)c1nn(-c2ccc(Cl)cc2Cl)c2c1CCc1sc(Br)cc1-2,235 to 237 °C
18,OC1COC(c2ccccc2)OC1 (stereo not given),83 to 84 °C
19,COc1ccc(C2CNCc3c(C)cccc32)cc1OC (stereo not given),86 to 88 °C
20,COc1cccc(C=CC(=O)C=Cc2cccc(OC)c2)c1,52 to 54 °C
21,Cn1c(=O)c2c(nc(C=Cc3cccc([N+](=O)[O-])c3)n2C)n(C)c1=O,306 to 308 °C
22,COc1ccc(N(N=Cc2ccccc2)C(=O)c2ccccc2)cc1,151 to 153 °C
23,CSc1cc2c(cc1C(F)(F)F)N(C(=O)Nc1cccc(C(=O)Nc3cccnc3)c1)CC2,195 to 197 °C
24,Cc1nnsc1CS(=O)(=O)c1ccccc1,118 °C
25,CC(=O)c1ccc(-c2ccc(Cl)cc2)c([N+](=O)[O-])c1,103 to 105 °C
